Each structure is given as a SMILES string.

In the experiment the target is Neuronal acetylcholine receptor subunit alpha-7 (Rattus norvegicus, UniProt Q05941). The experiment is described as follows: Binding Assay: The [3H]-methyllycaconitine binding assay is a modification of the method described by Davies et al. in Neuropharmacol. 1999, 38, 679-690.Rat brain tissue (hippocampus or whole brain) is homogenized in homogenization buffer (10% w/v, 0.32 M sucrose, 1 mM EDTA, 0.1 mM phenylmethylsulphonyl fluoride (PMSF), 0.01% (w/v) NaN3, pH 7.4, 4 C.) at 600 rpm in a glass homogenizer. The homogenate is centrifuged (1000xg, 4 C., 10 min) and the supernatant is removed. The pellet is resuspended (20% w/v) and the suspension is centrifuged (1000xg, 4 C., 10 min). The two supernatants are combined and centrifuged (15 000xg, 4 C., 30 min). The pellet obtained in this way is referred to as the P2 fraction.The P2 pellet is suspended in binding buffer (50 mM Tris-HCl, 1 mM MgCl2, 120 mM NaCl, 5 mM KCl, 2 mM CaCl2, pH 7.4), and the suspension is centrifuged (15 000xg, 4 C., 30 min), twice.The residue is resuspended in binding buffer and incubated in a volume of 250 ul. The class given is tissue-based.
Chain of Neuronal acetylcholine receptor subunit alpha-7 (Q05941 whole entry): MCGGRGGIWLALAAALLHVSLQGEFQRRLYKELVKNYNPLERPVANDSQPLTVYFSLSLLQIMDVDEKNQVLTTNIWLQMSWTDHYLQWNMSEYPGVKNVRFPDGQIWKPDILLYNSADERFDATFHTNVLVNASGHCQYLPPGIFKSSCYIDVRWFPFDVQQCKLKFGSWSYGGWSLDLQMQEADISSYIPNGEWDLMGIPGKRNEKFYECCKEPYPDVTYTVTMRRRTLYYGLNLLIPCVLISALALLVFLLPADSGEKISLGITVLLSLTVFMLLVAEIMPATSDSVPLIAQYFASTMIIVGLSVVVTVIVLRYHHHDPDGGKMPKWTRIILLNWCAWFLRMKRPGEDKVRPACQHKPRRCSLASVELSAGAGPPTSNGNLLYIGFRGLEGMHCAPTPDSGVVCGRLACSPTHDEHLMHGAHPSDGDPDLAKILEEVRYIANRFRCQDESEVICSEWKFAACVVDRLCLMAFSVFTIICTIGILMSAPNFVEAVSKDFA
Turning to `O=C(NC1CC1)c1cccc(-c2cccc3cc(C(=O)N[C@H]4CN5CCC4CC5)oc23)c1`, the inhibitory constant (Ki) turned out to be 3 nM.
For `CN1CCN(C(=O)c2cccc(-c3cccc4cc(C(=O)N[C@H]5CN6CCC5CC6)oc34)c2)CC1`, the Ki amounted to 14 nM.
As for `CNC(=O)NCc1ccccc1-c1cccc2cc(C(=O)N[C@H]3CN4CCC3CC4)sc12`, the figure is 3.3 nM.

For the origin of these results see ChEMBL document CHEMBL3638567, “2-heteroaryl carboxamides” (2015).
